# Laboratory results taken from patent US20180099031A1, “DIABETES TREATMENT” (BETH ISRAEL DEACONESS MEDICAL CENTER, priority 2013, published 2018).
# Test system: New onset diabetic NOD mice
# Assay: α1 anti-trypsin treatment of new onset diabetic NOD mice, blood glucose levels
# Assay type: in vivo
# Source text: Female NOD (NOD/LtJx) mice and NOD.SCID (NOD.CB17-Prkdcscid/J) mice were purchased from Jackson Laboratories (Bar Harbor, Me.) at 4 wks of age and maintained under pathogen-free conditions at the Harvard Institutes of Medicine (Boston, Mass.). The Harvard Medical School institutional review board approved all animal studies.
# Blood glucose levels of NOD mice were monitored twice weekly with the Accu-Check blood glucose monitor system (Roche, Indianapolis, Ind.). When non-fasting blood glucose levels were in excess of 200 mg/dl on three consecutive measurements a diagnosis of new onset of diabetes was made. Mice with blood glucose levels between 250 to 350 mg/dl were used for the experiment described below. […] The 25% residual beta cell mass is similar to that found in newly diagnosed patients with T1DM.
# New onset diabetic NOD mice were divided into two groups and treated with α1 anti-trypsin while simultaneously receiving intense insulin treatment (Group 1) or implantable insulin pellets (Group 2).
# For the animals in Group 1, insulin doses were calibrated on the basis of three blood glucose measurements per day. The goal was to maintain blood glucose levels between 100-160 mg/dl. For blood glucose levels in excess of 160 mg/dl, NPH insulin was administered i.p. in doses ranging from 1 to 4 International Units depending upon the magnitude of hyperglycemia. For blood glucose level between 160 and 200 mg/dl, 1 IU was given. For blood glucose levels between 200 and 250 mg/dl, 2 IU of NPH insulin were given. For blood glucose levels between 250 and 300 mg/dl, 2 IU of NPH insulin were given. For blood glucose levels between 300 and 350 mg/dl, 3 IU of NPH insulin were given. For blood glucose levels in excess of 350 mg/dl, 4 IU of NPH insulin were given. Mice with high blood glucose levels in excess of 400 mg/dl for 2 days also received 0.2-0.4 ml warm normal saline subcutaneously in order to treat glycosuria-associated dehydration.
# The animals in Group 2, LinBit™ sustained release insulin implants were used for management of hyperglycemia. LinBit™ sustained release insulin implants were purchased from LinShin Canada Inc. The LinBit™ implants (3-mm in length and 2 mm in diameter) were made from an admixture of insulin and micro-recrystallized palmitic acid and were erodible in vivo after being placed subcutaneously. The insulin release rate was about 0.1 U/day/implant for the time period over 2-4 weeks.
# In our experiments, one or 2 LinBit™ implants were placed subcutaneously under the mid dorsal skin in newly onset diabetic mice with 3 previous measurements of blood glucose levels >200 mg/dL. The mice were anesthesized with ketamine/xylazine and the hair on the dorsal skin from a spot about 1 cm^2 was clipped using a small scissors with curved tips. […]
substance,measurement,setting,value
"α1 anti-trypsin: Aralast NP, a human α1-proteinase inhibitor derived from pooled human plasma, purchased from Baxter",blood glucose levels,"Group 1: with intense insulin therapy (NPH insulin i.p., three glucose measurements per day), Aralast NP 2 mg i.p. every 3 days, five injections, experiment 60-100 days, FIG. 1",fell to normoglycemic levels shortly after treatment began and remained at normal levels for the entire duration of the experiment
same,blood glucose levels shortly after treatment began,"Group 2: with LinBit insulin implants s.c., Aralast NP 2 mg i.p. every 3 days, five injections, FIG. 2",fell to normoglycemic levels shortly after treatment began
same,effect on diabetic state,glucose levels maintained within normal limits (50-120 mg/dL) by intensive insulin therapy,curative effect
same,effect on diabetic state,hyperglycemic state managed by subcutaneously placed insulin pellets,less effective
